Test results reported in publication PMC7076694, “The Qi Site of Cytochrome b is a Promiscuous Drug Target in Trypanosoma cruzi and Leishmania donovani” (ACS Infectious Diseases, 2020).
Like-named read-outs stand apart in the source and are kept apart here.

Experiments:
T. brucei Procyclics = assay: T. brucei procyclic drug sensitivity (resazurin); type: cell-based, Trypanosoma brucei; conditions: read-out: EC50 values, T. brucei Pro
Method: To examine the effects of test compounds on growth, mid log procyclics were seeded into 96-well plates at a cell density of 5 × 10^5 cells mL^–1. Cells were exposed to test compounds over a range of concentrations (2-fold serial dilutions). Following 72 h of incubation in the presence of drug, 500 μM resazurin was added to each well and fluorescence measured after a further 2 h incubation.

HepG2 Cells = assay: HepG2 cell potency; type: cell-based; conditions: Homo sapiens
Method: Table 1 Compound Efficacy: Potencies of Compounds Were Determined against L. donovani Promastigotes (Pro), L. donovani Intramacrophage Amastigotes (Intra-MAC), T. cruzi Epimastigotes (Epi), T. cruzi Intra-Vero Cells (Intra-Vero), T. brucei Bloodstream Forms (BSF), T. brucei Procyclics (Pro), and HepG2 Cells ^a | column: HepG2

T. cruzi epimastigotes [1] = assay: T. cruzi epimastigote respiration (O2 consumption, MitoXpress-Xtra); type: cell-based; conditions: Trypanosoma cruzi, read-out: O2 consumption, IC50 values, T. cruzi
Method: Compounds were predispensed (150 nL well^–1) into 384-well assay plates using an Echo liquid handler (Labcyte Inc.). […] The negative control for this assay was 0.2% DMSO, equivalent to the final concentration of solvent used in drug dilutions.
Our O2 consumption assay was an adaptation of the assay described by Khare and colleagues.[14] Briefly, assay buffer (250 mM sucrose, 15 mM KCl, 5 mM MgCl2, 1 mM EGTA, 30 mM K2HPO4, pH 7.4; 25 μL) was added to 384-well assay plates and incubated at 37 °C for 10 min. Mid log T. cruzi epimastigotes were harvested (1600g for 10 min at 4 °C), washed three times with buffer A (10 mM Tris-HCl, pH 7.4, 230 mM mannitol, 70 mM sucrose, 0.2 mM EDTA, 0.2% bovine serum albumin, 0.5 mM PMSF), and finally resuspended at 1.5 × 10^8 epimastigotes mL^–1. Following resuspension, 3 × 10^6 epimastigotes (20 μL) were dispensed into each well followed by MitoXpress-Xtra probe (15 μL, Agilent) resulting in a final assay volume of 60 μL. Plates were gently shaken, and 30 μL of HS mineral oil (Agilent) was then added to each well to prevent oxygen exchange between the assay buffer and air. Plates were incubated for 90 min at 37 °C, and fluorescence was then measured using an EnVision MultiMode plate reader (PerkinElmer) using excitation and emission wavelengths of 380 and 650 nm, respectively.
Data were normalized to percent of biological response by using positive (i.e., highest response achieved using a chemical tool compound, RactinomycinA) or negative (i.e., lowest response achieved in the absence of any testing compound, RDMSO) controls by using the following equation: [drawing 3] where Rx is the assay response measured in the presence of test compounds.

[2] = system: T. brucei Bloodstream Forms; assay: T. brucei bloodstream form drug sensitivity; type: cell-based, Trypanosoma brucei; conditions: read-out: EC50 values, T. brucei BSF
Method: EC50 values for test compounds were determined as previously described.[40]

T. cruzi epimastigotes [3] = assay: microbe, parasite or virus in culture; type: cell-based; conditions: Trypanosoma cruzi
[4] = system: L. donovani promastigotes; assay: microbe, parasite or virus in culture; type: cell-based, Leishmania donovani; conditions: for EC50: Leishmania donovani
[5] = system: T. cruzi Intra-Vero Cells (intracellular amastigotes); assay: T. cruzi intracellular amastigote (Intra-Vero) drug sensitivity; type: cell-based; conditions: Trypanosoma cruzi; intracellular amastigotes in Vero cells
Method: (§1) T. cruzi and L. donovani intracellular amastigote drug sensitivity assays were conducted as previously described.[42],[43]

[6] = molecular target: T1, complex III (cytochrome bc1 complex) (Leishmania donovani, UniProt A5HU08); assay: biochemical; type: biochemical; conditions: read-out: complex III IC50 values, Compound 1 RES1 lysate; lysate of L. donovani Compound 1 RES1 cell line
T1 sequence (A5HU08 1-290): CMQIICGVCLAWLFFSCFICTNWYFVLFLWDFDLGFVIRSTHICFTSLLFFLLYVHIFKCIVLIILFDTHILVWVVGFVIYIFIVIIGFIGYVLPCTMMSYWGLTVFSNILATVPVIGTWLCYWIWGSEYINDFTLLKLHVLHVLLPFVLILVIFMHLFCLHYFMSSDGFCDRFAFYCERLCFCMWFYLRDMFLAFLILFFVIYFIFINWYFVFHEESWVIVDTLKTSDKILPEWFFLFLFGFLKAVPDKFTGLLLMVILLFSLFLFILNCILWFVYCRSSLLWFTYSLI
T1 sequence (A0A3S7WPP0 1-258 partner): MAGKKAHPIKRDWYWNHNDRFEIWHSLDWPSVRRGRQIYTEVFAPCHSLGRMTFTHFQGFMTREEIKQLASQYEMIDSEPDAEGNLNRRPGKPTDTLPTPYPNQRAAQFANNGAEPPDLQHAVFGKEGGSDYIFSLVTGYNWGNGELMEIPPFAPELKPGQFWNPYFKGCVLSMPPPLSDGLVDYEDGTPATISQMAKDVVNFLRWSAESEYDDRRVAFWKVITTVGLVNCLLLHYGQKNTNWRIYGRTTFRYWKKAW

[7] = molecular target: complex III (cytochrome bc1 complex) (Leishmania donovani, UniProt A5HU08); assay: biochemical; type: biochemical
[8] = molecular target: complex III (cytochrome bc1 complex) (Trypanosoma cruzi, UniProt Q9T479); assay: Complex III (cytochrome c reduction) assay, T. cruzi lysate; type: biochemical; conditions: mitochondria-enriched lysate of epimastigotes
[9] = system: L. donovani Intramacrophage Amastigotes; assay: L. donovani intramacrophage amastigote drug sensitivity; type: cell-based; conditions: Leishmania donovani, read-out: EC50 values, L. donovani Intra-MAC
Method: as §1

[10] = system: L. donovani intracellular amastigotes within macrophages; assay: microbe, parasite or virus in culture; type: cell-based; conditions: Leishmania donovani
[11] = system: T. cruzi intracellular amastigotes; design: method as in PMID 25740547; conditions: high-throughput screening hit ref 13; read-out: EC50 against T. cruzi intracellular amastigotes; cited from earlier work
[12] = system: T. cruzi Intra-Vero Cells (intracellular amastigotes); design: method as in PMID 26186534; conditions: reported previously ref 14; cited from earlier work
T. cruzi epimastigotes [13] = system: T. cruzi epimastigotes; design: method as in PMID 26186534; conditions: reported previously ref 14; read-out: O2 consumption, IC50 values, T. cruzi; cited from earlier work
[14] = molecular target: T2, complex III (cytochrome bc1 complex) (Leishmania donovani, UniProt A5HU08, F187I); assay: biochemical; type: biochemical
T2 sequence (A5HU08 1-290 F187I): T1 sequence (A5HU08 1-290)
T2 sequence (A0A3S7WPP0 1-258 partner): T1 sequence (A0A3S7WPP0 1-258 partner)

[15] = wild-type epimastigotes, read-out: EC50 values, T. cruzi Epi
[16] = wild-type promastigotes, read-out: EC50 values, L. donovani Pro
[17] = HepG2 cells, read-out: EC50 values, HepG2
[18] = epimastigotes (3 × 10^6), MitoXpress-Xtra probe
[19] = Trypanosoma brucei, bloodstream form
[20] = Macrophage, read-out: Leishmania EC50, Compound 1 RES1
[21] = Macrophage, read-out: Leishmania EC50, Compound 2 RES1
[22] = intra-macrophage, WT parasites, read-out: Leishmania EC50, WT

| Structure (SMILES) | EC50 (T. cruzi epimastigotes [3]; [15]) [nM] | EC50 [4, 16] [nM] | EC50 (T. brucei Procyclics; Trypanosoma brucei, procyclics) [nM] | EC50 [5] [nM] | IC50 [7] [nM] | EC50 (HepG2 Cells; [17]) [nM] | IC50 [8] [nM] | IC50 (T. cruzi epimastigotes [1]; [18]) [nM] | EC50 [9] [nM] | EC50 [2, 19] [nM] | EC50 [10, 20] [nM] | EC50 [10, 21] [nM] | EC50 [10, 22] [nM] | also measured |
| --- | --- | --- | --- | --- | --- | --- | --- | --- | --- | --- | --- | --- | --- | --- |
| CCCCCC[C@H]1C(=O)O[C@H](C)[C@H](NC(=O)c2cccc(NC=O)c2O)C(=O)O[C@@H](C)[C@@H]1OC(=O)CC(C)C [antimycin A, reference compound] | 28 ± 1 | 2 ± 0.1 |  |  |  |  |  |  |  |  |  |  |  | EC50 (T. brucei Procyclics; Trypanosoma brucei): 18 ± 0.5 nM; EC50 (HepG2 Cells; HepG2, read-out: EC50 values, HepG2): < 1000 nM; IC50 (T. cruzi epimastigotes [1]): 200 ± 36 nM; EC50 ([2]; Trypanosoma brucei): > 50000 nM |
| Cc1nn2c(=O)c(Cc3ccc(Cl)cc3)c(C)[nH]c2c1C [compound 1] | 210 ± 7 | 19 ± 1 | 97 ± 3 | 20 ± 3 | 44 ± 7 | > 50000 | 72 ± 16 | 150 ± 36 | 1500 ± 400 | 6600 ± 470 | 1300 | 20 | 100 | IC50 [6]: 220 ± 51 nM; EC50 ([2]; bloodstream form, listed as DDD01542111 (compound 1)): 6700 ± 470 nM; EC50 (T. cruzi epimastigotes [3]; WT epimastigotes, resistance study, read-out: EC50 against WT T. cruzi (Figure 2)): 120 ± 6 nM; EC50 (T. cruzi epimastigotes [3]; compound 1-resistant epimastigote clone RES I, read-out: EC50 against T. cruzi RES I): 1400 ± 78 nM; EC50 (T. cruzi epimastigotes [3]; compound 1-resistant epimastigote clone RES II, read-out: EC50 against T. cruzi RES II): 2500 ± 62 nM; EC50 (T. cruzi epimastigotes [3]; compound 1-resistant epimastigote clone RES III, read-out: EC50 against T. cruzi RES III): 3800 ± 160 nM; EC50 ([4]; WT promastigotes, resistance study, read-out: EC50 against WT L. donovani (Figure 2)): 21.5 ± 0.5 nM; EC50 ([4]; compound 1-resistant promastigote clone RES I, read-out: EC50 against L. donovani RES I): 1300 ± 14 nM; EC50 ([4]; compound 1-resistant promastigote clone RES II, read-out: EC50 against L. donovani RES II): 1300 ± 96 nM; EC50 ([4]; compound 1-resistant promastigote clone RES III, read-out: EC50 against L. donovani RES III): 790 ± 27 nM |
| Cc1nc2nc(C)c(Cc3ccc(C(C)C)cc3)c(=O)n2[nH]1 [TCMDC-143087] |  |  |  |  |  |  |  |  |  |  |  |  |  | EC50 [11]: 250 nM |
| CCc1c(C)c(C#N)c2nc3ccccc3n2c1O [GNF7686, reference compound] | 710 ± 17 | 570 ± 51 | 521 |  | 1600 ± 300 | > 50000 | 550 ± 97 |  | > 50000 | > 50000 |  |  |  | EC50 (T. brucei Procyclics; procyclics): 520 ± 13 nM; EC50 [12]: 150 ± 30 nM; IC50 (T. cruzi epimastigotes [13]): 210 nM; relative sensitivity of L. donovani promastigotes bearing cytochrome b C222F mutation ([4]; compound 1-selected clone, relative to wild-type): markedly cross-resistant; relative sensitivity of L. donovani promastigotes bearing cytochrome b G37A mutation ([4]; compound 1-selected clones, relative to wild-type): remaining sensitive |
| CC(=O)Nc1ccc2[nH]c(=O)n([C@H]3CC[C@H](C(C)C)CC3)c(=O)c2c1 [compound 3] | 320 ± 12 | 1640 ± 54 | 88 ± 2 | 150 ± 46 | > 13000 | 7300 ± 60 | 86 ± 39 | 190 ± 38 | > 50000 | 8700 ± 470 |  |  |  |  |
| Cc1cc(C)c2c(N)c(C(=O)N3CCC(C)(C)c4ccccc43)sc2n1 [compound 2] | 71 ± 2 | 24 ± 2 | 140 ± 14 | 30 ± 10 | 99 ± 13 | > 50000 | 100 ± 24 | 510 ± 119 | 1100 ± 600 | 8000 ± 970 | 30 | 4400 | 400 | IC50 [14]: 4200 ± 500 nM |
